Reference: US10532977B2, “Small molecule inhibitors of protein tyrosine phosphatases and uses thereof” (Indiana University Research and Technology Corporation, priority 2015, dated 2020)
“Also recorded” adds a separate entry of the source.

How the values were obtained:
Laforin = molecular target: T1, Laforin (Homo sapiens, UniProt O95278); experiment: Laforin inhibition, pNPP substrate; assay type: biochemical
T1 sequence (O95278 1-331): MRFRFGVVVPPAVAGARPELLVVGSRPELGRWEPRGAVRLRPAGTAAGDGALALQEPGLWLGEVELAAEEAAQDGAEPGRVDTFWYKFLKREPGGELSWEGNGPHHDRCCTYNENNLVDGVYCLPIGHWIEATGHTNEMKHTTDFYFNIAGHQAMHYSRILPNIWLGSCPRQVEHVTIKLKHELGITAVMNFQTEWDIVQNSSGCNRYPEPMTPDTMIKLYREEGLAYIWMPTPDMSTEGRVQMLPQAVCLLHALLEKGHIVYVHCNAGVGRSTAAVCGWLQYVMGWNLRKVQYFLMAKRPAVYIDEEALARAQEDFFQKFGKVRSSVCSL

SHP2 [1] = molecular target: SHP2 (Homo sapiens, UniProt Q06124); experiment: Covalent adduct formation with SHP2, QTOF ESI-MS / LC-MS; settings: pH 7, cefsulodin 3 hours, PVS 10 minutes
Method: Characterization of cefsulodin-mediated SHP2 inhibition by Q-TOF ESI-MS, LC-MS, and HPLC. Agilent 6520 Accurate-Mass was used for the Q-TOF ESI-MS studies. Water and acetonitrile (both containing 0.1% formic acid) were used as eluent (80% water, flow 50 μL/min, run time 5 minutes). ESI positive mode was used with mass range from 300 to 1700, the gas temperature was 325° C., and vaporizer temperature was: […] The sample was adjusted to have a concentration at 0.1 mg/mL, the injection volume of each sample was 1 μL. Mass hunter software was used for protein deconvolution data analysis to calculate the molecular weight of the protein.
Agilent Technologies 6130 quadrupole LC-MS instrument was used for the LC-MS studies. A C18 reserved phase column (phenomenex, 50×4.6 mm) was used as stationary phase, water and methanol (both containing 0.1% formic acid) were used as mobile phase (gradient: 0-100% methanol, flow 0 8 ml/min, run time 15 minutes), and UV absorbance at the fixed wavelength of 254 nm and positive and negative ESI-MS data were recorded. The sample was adjusted to have a concentration at 0.1 mg/mL, and the injection volume of each sample was 0.2 μL. The retention time and corresponding ESI-MS data were used as identity of molecules.

M. tuberculosis H37Rv = experiment: Microplate Alamar Blue assay (MABA) MIC, H37Rv; assay type: cell-based, Mycobacterium tuberculosis
Mtb-infected macrophages = experiment: Macrophage assay, growth of M. tuberculosis in IFN-γ activated J774 macrophages; assay type: cell-based, Mycobacterium tuberculosis; settings: J774A.1 macrophages
SHP2 [2] = molecular target: T2, SHP2 (Homo sapiens, UniProt Q06124); experiment: SHP2 inhibition, pNPP substrate; assay type: biochemical
T2 sequence (Q06124 224-528): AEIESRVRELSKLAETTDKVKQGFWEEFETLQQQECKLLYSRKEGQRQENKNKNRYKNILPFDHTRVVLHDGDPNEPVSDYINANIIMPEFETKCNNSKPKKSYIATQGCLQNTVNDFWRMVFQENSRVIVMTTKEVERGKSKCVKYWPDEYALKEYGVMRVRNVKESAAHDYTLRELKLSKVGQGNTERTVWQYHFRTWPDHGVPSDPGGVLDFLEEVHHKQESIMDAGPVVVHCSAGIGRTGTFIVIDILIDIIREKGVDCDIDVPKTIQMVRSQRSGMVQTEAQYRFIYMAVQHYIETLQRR

[3] = tested on: EGF-mediated ERK1/2 phosphorylation; experiment: EGF-mediated ERK1/2 phosphorylation, immunoblot, H1975 cells; assay type: cell-based, human; settings: compound 7 at 40 μM
Method: Cell proliferation and immunoblot analysis. Human non-small cell lung carcinoma cell line H1975 was cultured at 37° C. and 5% CO2 in RPMI-1640 (Corning) supplemented with 10% fetal bovine serum (HyClone). Human breast cancer cell line MDA-MB-231 was cultured in DMEM supplemented with 10% fetal bovine serum. For cell proliferation assay, 2˜3×10^3 cells were seeded in each well of 96-well plates. After treating cells with compounds for 2 days, cells were incubated with 50 µg/ml MTT (3-(4,5-Dimethylthiazol-2-yl)-2,5-diphenyltetrazolium bromide) for ˜3-4 hours. Then, the culture medium was removed, DMSO was added to dissolve the formazan crystals. Wells containing only media were used for background correction. The optical density was measured spectrophotometrically at 540 nm. For signaling analysis, cells were serum-starved overnight followed by treatment with vehicle or compounds for 3 hours, and then either left un-stimulated or stimulated with 5 μg/ml EGF or 10 nM PMA (Sigma) for indicated time. Cells were lysed and the lysates were electrophoresed on a 10% polyacrylamide gel, and then transferred to a nitrocellulose membrane, and probed with anti-phospho-ERK1/2 and anti-ERK1/2 (Cell Signaling) antibodies followed by incubation with horseradish peroxidase-conjugated secondary antibodies. […]

PTP1B = PTP1B (Homo sapiens, UniProt P18031); experiment: PTP1B inhibition, pNPP substrate; assay type: biochemical; settings: pNPP at Km, pH 7.0, 25° C.
Chain of PTP1B (P18031 whole entry): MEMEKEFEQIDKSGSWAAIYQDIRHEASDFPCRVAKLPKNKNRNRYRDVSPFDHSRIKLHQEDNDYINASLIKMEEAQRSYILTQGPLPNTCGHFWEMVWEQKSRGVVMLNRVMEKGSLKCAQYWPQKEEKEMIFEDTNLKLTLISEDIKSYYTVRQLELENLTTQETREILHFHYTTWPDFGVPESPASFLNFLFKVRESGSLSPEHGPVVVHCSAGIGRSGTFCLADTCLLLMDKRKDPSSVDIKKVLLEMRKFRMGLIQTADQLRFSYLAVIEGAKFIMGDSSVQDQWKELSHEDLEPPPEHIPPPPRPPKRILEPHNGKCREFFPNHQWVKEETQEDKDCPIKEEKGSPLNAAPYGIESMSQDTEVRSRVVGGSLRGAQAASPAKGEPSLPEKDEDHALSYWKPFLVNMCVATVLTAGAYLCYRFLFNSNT

TcPTP = TcPTP (Homo sapiens, UniProt P17706); experiment: TcPTP inhibition, pNPP substrate; assay type: biochemical; settings: pH 7
Chain of TcPTP (P17706 whole entry): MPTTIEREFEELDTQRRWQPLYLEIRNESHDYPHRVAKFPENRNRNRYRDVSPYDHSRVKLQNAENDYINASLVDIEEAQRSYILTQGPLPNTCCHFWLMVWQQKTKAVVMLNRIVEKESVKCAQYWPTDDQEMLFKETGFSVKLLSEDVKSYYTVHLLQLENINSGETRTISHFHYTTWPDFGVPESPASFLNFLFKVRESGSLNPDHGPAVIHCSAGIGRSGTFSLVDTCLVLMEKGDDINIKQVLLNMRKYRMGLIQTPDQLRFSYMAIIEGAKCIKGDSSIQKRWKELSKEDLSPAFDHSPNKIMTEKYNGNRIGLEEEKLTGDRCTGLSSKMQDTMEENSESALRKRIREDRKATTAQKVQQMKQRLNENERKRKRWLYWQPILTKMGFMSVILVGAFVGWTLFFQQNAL

LYP = LYP (Homo sapiens, UniProt Q9Y2R2); experiment: LYP inhibition, pNPP substrate; assay type: biochemical; settings: pNPP at Km, pH 7.0, 25° C.
PEST = PEST (Homo sapiens, UniProt Q05209); experiment: PEST inhibition, pNPP substrate; assay type: biochemical; settings: pH 7
HePTP = HePTP (Homo sapiens, UniProt P35236); experiment: HePTP inhibition, pNPP substrate; assay type: biochemical; settings: pNPP at Km, pH 7.0, 25° C.
Chain of HePTP (P35236 whole entry): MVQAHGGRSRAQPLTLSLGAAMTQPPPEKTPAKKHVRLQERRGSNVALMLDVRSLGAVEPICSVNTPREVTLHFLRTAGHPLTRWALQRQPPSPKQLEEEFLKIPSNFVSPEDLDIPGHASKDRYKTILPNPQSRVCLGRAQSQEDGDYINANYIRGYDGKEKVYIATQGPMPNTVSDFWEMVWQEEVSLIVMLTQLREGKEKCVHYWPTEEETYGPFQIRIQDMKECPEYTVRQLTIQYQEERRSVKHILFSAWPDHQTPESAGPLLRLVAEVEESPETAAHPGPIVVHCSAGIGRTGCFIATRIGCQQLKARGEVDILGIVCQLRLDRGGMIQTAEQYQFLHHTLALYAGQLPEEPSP

FAP1 = FAP1 (Homo sapiens, UniProt Q12923); experiment: FAP1 inhibition, pNPP substrate; assay type: biochemical; settings: pH 7
Chain of FAP1 (Q12923 whole entry): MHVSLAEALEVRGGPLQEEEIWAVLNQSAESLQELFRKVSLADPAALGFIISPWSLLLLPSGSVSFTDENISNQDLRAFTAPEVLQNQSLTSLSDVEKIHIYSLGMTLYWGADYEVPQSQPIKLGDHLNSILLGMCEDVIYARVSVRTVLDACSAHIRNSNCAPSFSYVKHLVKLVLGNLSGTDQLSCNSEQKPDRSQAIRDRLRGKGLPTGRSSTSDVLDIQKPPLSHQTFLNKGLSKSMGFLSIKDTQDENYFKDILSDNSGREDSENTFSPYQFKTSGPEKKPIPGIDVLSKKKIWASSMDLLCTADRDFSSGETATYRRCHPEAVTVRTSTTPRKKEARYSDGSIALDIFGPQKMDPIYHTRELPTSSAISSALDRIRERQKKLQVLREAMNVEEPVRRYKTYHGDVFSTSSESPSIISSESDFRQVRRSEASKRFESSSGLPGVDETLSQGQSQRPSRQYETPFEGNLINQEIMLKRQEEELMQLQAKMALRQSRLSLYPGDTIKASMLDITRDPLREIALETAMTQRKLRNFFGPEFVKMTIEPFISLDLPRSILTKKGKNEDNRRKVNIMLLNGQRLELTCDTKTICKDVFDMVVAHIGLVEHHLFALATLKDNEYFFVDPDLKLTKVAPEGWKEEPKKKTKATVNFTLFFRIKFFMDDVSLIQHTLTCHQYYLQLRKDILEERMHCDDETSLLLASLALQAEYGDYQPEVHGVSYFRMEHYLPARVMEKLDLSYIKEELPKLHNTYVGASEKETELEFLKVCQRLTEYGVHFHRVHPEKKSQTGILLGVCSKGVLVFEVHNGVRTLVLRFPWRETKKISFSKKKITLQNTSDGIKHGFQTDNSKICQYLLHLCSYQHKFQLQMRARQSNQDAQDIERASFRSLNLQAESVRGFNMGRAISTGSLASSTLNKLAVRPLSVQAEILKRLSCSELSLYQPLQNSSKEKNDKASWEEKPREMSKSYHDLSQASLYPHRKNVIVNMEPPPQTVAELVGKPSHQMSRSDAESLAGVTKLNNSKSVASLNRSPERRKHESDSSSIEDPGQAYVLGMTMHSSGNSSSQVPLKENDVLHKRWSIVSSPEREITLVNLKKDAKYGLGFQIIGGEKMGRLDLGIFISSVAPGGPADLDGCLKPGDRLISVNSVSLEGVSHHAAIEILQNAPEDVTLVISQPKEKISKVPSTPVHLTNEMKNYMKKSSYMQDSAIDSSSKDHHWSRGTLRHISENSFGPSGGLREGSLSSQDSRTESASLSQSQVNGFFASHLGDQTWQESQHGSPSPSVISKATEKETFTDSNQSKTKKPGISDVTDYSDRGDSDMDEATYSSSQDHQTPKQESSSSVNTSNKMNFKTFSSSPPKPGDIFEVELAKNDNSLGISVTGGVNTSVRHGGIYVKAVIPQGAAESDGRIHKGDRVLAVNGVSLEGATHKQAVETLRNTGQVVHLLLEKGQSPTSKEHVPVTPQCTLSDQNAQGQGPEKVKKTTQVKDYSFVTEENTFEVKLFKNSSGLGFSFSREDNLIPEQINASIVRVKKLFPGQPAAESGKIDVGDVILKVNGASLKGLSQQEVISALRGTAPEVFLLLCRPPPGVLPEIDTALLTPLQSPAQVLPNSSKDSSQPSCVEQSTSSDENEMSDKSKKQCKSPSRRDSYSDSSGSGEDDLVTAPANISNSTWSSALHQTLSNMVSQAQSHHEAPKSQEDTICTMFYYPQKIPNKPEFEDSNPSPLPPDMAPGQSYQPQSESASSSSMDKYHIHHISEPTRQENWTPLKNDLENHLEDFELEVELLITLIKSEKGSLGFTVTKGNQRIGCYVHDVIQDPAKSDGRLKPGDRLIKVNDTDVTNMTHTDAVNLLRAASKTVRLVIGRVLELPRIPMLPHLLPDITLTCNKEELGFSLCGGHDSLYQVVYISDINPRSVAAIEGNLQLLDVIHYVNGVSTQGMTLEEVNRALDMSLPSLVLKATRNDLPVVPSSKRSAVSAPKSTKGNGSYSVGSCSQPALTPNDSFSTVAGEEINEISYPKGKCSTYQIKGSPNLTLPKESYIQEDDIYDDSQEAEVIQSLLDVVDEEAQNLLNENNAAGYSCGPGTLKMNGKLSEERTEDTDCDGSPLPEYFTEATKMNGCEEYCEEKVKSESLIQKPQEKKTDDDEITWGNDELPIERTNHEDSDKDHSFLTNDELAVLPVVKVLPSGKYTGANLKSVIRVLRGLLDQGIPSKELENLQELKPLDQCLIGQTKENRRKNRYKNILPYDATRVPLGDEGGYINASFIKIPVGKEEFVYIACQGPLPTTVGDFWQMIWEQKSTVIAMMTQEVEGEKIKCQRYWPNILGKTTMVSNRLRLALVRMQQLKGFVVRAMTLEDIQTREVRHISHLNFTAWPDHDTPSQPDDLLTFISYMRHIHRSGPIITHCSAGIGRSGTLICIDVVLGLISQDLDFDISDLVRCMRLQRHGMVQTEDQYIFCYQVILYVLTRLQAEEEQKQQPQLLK

VHR = VHR (Homo sapiens, UniProt P51452); experiment: VHR inhibition, pNPP substrate; assay type: biochemical; settings: pNPP at Km, pH 7.0, 25° C.
Chain of VHR (P51452 whole entry): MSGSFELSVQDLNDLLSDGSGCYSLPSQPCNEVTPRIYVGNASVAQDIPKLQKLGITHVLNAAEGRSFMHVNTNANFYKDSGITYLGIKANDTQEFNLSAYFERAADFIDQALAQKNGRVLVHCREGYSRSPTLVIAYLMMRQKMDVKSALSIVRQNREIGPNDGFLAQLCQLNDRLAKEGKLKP

Ssu72 = molecular target: T3, Ssu72 (Homo sapiens, UniProt Q9NP77); experiment: Ssu72 inhibition, pNPP substrate; assay type: biochemical; settings: pH 7
T3 construct: made in house
T3 sequence (Q9NP77 whole entry): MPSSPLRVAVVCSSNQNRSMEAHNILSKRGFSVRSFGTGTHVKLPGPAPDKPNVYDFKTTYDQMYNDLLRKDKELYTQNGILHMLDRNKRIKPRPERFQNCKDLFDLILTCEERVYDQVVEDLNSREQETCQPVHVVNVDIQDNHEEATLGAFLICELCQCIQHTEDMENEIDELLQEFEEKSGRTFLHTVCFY

mPTPB = mPTPB (Mycobacterium tuberculosis, UniProt I6WXK4); experiment: biochemical
Chain of mPTPB (I6WXK4 whole entry): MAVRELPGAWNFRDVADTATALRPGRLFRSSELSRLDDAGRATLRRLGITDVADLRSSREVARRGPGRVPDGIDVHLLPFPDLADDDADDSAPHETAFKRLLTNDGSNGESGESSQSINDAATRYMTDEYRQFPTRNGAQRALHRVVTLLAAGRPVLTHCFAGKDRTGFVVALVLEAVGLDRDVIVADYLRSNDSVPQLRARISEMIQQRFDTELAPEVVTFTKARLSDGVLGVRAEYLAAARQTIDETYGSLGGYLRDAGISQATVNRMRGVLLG

mPTPA = mPTPA (Mycobacterium tuberculosis, UniProt P9WIA1); assay type: biochemical
Chain of mPTPA (P9WIA1 whole entry, looked up): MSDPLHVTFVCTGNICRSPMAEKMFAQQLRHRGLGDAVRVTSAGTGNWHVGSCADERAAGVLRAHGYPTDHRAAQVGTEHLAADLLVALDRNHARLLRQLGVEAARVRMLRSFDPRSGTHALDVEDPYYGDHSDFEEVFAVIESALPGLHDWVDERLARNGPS

PTPH1 = molecular target: T4, PTPH1 (Homo sapiens, UniProt P26045); experiment: PTPH1 inhibition, pNPP substrate; assay type: biochemical; settings: pH 7
T4 sequence (P26045 1-913): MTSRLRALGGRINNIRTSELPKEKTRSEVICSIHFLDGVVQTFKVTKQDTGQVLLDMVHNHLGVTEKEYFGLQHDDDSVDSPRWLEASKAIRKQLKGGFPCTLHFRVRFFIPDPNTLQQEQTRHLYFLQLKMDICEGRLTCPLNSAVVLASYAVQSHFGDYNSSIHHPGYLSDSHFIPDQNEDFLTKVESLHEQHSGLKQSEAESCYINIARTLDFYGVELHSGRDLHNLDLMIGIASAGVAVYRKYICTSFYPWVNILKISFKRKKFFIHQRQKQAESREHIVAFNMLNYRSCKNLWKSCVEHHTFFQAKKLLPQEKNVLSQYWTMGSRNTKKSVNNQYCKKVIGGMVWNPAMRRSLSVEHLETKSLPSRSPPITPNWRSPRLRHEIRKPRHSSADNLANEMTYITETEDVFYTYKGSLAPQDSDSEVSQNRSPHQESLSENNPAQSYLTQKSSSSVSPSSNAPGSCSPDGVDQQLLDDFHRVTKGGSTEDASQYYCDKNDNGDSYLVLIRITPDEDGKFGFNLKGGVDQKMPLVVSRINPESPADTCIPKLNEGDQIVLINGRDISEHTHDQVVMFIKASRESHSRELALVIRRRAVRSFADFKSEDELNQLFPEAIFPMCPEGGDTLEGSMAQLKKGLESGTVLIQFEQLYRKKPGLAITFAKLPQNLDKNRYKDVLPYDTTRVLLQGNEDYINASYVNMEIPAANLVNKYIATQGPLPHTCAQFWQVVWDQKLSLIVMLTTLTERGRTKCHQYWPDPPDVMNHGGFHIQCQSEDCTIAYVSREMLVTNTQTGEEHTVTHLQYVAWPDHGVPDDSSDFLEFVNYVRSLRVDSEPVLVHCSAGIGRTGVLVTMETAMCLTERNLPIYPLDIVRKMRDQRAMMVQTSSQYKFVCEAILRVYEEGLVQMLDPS

LMWPTP = experiment: Insulin signaling in HepG2 cells; assay type: cell-based, human; settings: pretreated 1 hour, 5 nM insulin 5 minutes
Method: To assess the effects of L335N15 in insulin signaling pathway, HepG2 cells were pretreated with L335N15 for 1 hour and were subsequently stimulated with 5 nM insulin for 5 minutes. […] Consistent with IR activation, downstream Akt phosphorylation (Ser473) was increased. […] Accordingly, LMWPTP inhibitors such as L335N15 described herein can be used to develop agents for the treatment of type 2 diabetes and insulin resistance.

With `O=C(Nc1nnc(-c2ccccc2)s1)C(c1ccccc1)S(=O)(=O)O` (stereo not drawn) [Compound L319M73-2] the “specificity for Laforin over LMPTP” value (Laforin; ratio of IC50) was 8 fold.

`C=CS(=O)(=O)c1ccccc1` [phenyl vinyl sulfone] was tested, and the “covalent adduct formation with SHP2” value (SHP2 [1]) was “formed a covalent adduct”.

`O=C(CS(=O)(=O)O)Nc1nc2ccc([N+](=O)[O-])cc2s1` [Compound L335N15-07] was tested, and the “inhibition against Laforin at 100 μM” value (Laforin) was “no detectable inhibition”.

For `Cc1c(Br)cc(NC(=O)CS(=O)(=O)O)cc1Br`, the “activity in standard MIC assays” value (M. tuberculosis H37Rv) was “devoid of activity” and the “anti-Mtb activity in Mtb-infected macrophages” value (Mtb-infected macrophages) was “markedly decrease bacterial load”.

With `O=C(Nc1ccccc1)C(=O)Nc1ccc(NC(=O)C(c2ccccc2)S(=O)(=O)O)cc1` (stereo not drawn) [Compound 7, 2-oxo-2-((4-(2-oxo-2-(phenylamino)acetamido)phenyl)amino)-1-phenylethanesulfonic acid] the “inhibitory activity against SHP2 at 50 μM” value (SHP2 [2]; 50 μM) was “no inhibition” and the “EGF-mediated ERK1/2 phosphorylation in H1975 cells” value [3] was “no appreciable effect; also recorded: failed to block EGF-mediated ERK1/2 phosphorylation”.

`O=C(Nc1ccc(-n2ccnc2)cc1)C(c1ccccc1)S(=O)(=O)O` (stereo not drawn) [Compound L319M63] gave an IC50 (PTP1B) of over 100 µM, an IC50 (TcPTP) of over 100 µM and an IC50 (LYP) of over 100 µM. The IC50 (PEST) was over 100 µM, the IC50 (SHP2 [2]; pNPP at Km, pH 7.0, 25° C.) was over 100 µM and the IC50 (HePTP) was over 100 µM. It also gave an IC50 (FAP1) of over 100 µM, an IC50 (VHR) of over 100 µM and an IC50 (Ssu72) of over 100 µM.

`NC(=O)C(c1ccccc1)S(=O)(=O)O` (stereo not drawn) [SPAA, α-sulfophenylacetic amide, reference compound] was tested, and the IC50 (mPTPB) was 200 µM.

For `O=C(Nc1ccc(N2CCOCC2)cc1)C(c1ccccc1)S(=O)(=O)O` (stereo not drawn) [Compound L319M68], the “mode of mPTPA inhibition” value (mPTPA) was “competitive inhibitor” and the IC50 (PTPH1) was over 200 µM.

In the case of `O=C(Nc1nc2ccc(O[N+](=O)[O-])cc2s1)C(c1ccccc1)S(=O)(=O)O` (stereo not drawn) [Compound L319N15-07], the “inhibition against Laforin at 100 μM” value (Laforin) is reported as “no detectable inhibition”.

`O=C(Nc1ccc2nc(C(F)(F)F)[nH]c2c1)C(c1ccccc1)S(=O)(=O)O` (stereo not drawn) [Compound L319M54] was tested, and the IC50 (PTPH1) was over 200 µM.

With `O=C(CS(=O)(=O)O)Nc1nc2ccccc2s1` [Compound L335N15] the “Akt phosphorylation (Ser473) in HepG2 cells” value (LMWPTP) was “increased” and the “IR Tyr1162/1163 phosphorylation in HepG2 cells” value (LMWPTP; relative to DMSO) was “enhanced IR Tyr1162/1163 phosphorylation in a dose-dependent fashion”.

Work on `O=C(Nc1nc2ccccc2s1)C(c1ccccc1)S(=O)(=O)O` (stereo not drawn) [Compound L319N15] yielded an IC50 (PTPH1) of over 200 µM.

Work on `O=C(Nc1cnc2ccccc2c1)C(c1ccccc1)S(=O)(=O)O` (stereo not drawn) [Compound L319M88] yielded an IC50 (PTPH1) of over 200 µM.

For `O=C(O)c1cc2c(C#Cc3cccc(C(F)(F)F)c3)c(-c3ccccc3)oc2cc1O` [Compound L01Z08], the “anti-Mtb activity in Mtb-infected macrophages” value (Mtb-infected macrophages) was “potent anti-Mtb activity”.

In the case of `O=C(C(c1ccccc1)S(=O)(=O)O)N1CCC(c2ccc(Cl)c(Cl)c2)CC1` (stereo not drawn) [Compound L319N47], the “increase in potency against mPTPB compared to SPAA” value (mPTPB) is reported as 2000 fold.
